Data published in paper PMC12670405, “Second-Generation AURKA-Targeting PROTACs: Structural Optimization toward in Vivo Degradation in Neuroblastoma” (Journal of Medicinal Chemistry, 2025).
Values joined by “and” are separate entries in the source; they are usually repeats but may differ in a detail not shown here. Equal entries are not always repeated. Where two headings read alike, the source gives them in different places.

What was measured:
Plasma stability assay = format: in vitro ADME, CD-1 mouse; conditions: for half-life at 1 μM: CD-1 mouse plasma, 37 °C, read-out: plasma t1/2
Experimental: (§1) Plasma and metabolic stability tests were performed by Eurofins Discovery. For the plasma stability assay, test compounds were incubated in CD-1 mouse plasma for 0, 0.5, 1, 1.5, and 2 h at 37 °C at a concentration of 1 μM. For the metabolic stability assay, test compounds were incubated at 37 °C in either (1) CD-1 mouse liver microsomes (MLM) (0.1 mg/mL) at a concentration of 0.1 μM for 0, 15, 30, 45, and 60 min or (2) CD-1 mouse hepatocytes (MH) (0.7 million viable cells/mL) at a concentration of 1 μM for 0, 0.5, 1, 1.5, and 2 h. At the respective time points, acetonitrile was added to the incubation mixture followed by centrifugation. Samples were analyzed by HPLC-MS/MS and peak areas were recorded for each analyte. Compound stability, expressed as the percentage of parent compound remaining, was calculated by comparing the peak area of the compound at each time point relative to that of the 0h time point. Percentage compound remaining is plotted as a function of time as a logarithmic curve. Half-life (t 1/2) is estimated from the slope of the initial linear range of the curve, assuming first-order kinetics. […] Both plasma and metabolic assay experiments were performed once with 2 replicate samples each.

AURKA = biological target: T1, AURKA (Homo sapiens, UniProt O14965); experiment: AURKA degradation, Simple Western; format: cell-based; parameters: Representative Western blot showing levels of endogenous proteins MDR1, MYCN, AURKA, and CRBN in untreated cell lines; endogenous in cells; host or cells: NGP, IMR-32, SJNB-8, SK-N-BE(2)-C, SK-N-SH, SK-N-AS, SJNB-1, RPE, HEK293T; conditions: for pDC50: AURKA degradation; for time to robust AURKA depletion: IMR-32, 500 nM; for AURKA degradation potency upon cotreatment with tariquidar (in words): 100 nM, 1 μM tariquidar; for AURKA Degradation 24h @100nM / AURKA Degradation 24h @1000nM / AURKA degradation potency upon cotreatment with tariquidar (in words): 24h;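 on AURKA Degradation 24h @1000nM: measured in NGP neuroblastoma cells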;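 on AURKA Degradation 24h @100nM: measured in NGP neuroblastoma cells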
T1 sequence (O14965 1-403): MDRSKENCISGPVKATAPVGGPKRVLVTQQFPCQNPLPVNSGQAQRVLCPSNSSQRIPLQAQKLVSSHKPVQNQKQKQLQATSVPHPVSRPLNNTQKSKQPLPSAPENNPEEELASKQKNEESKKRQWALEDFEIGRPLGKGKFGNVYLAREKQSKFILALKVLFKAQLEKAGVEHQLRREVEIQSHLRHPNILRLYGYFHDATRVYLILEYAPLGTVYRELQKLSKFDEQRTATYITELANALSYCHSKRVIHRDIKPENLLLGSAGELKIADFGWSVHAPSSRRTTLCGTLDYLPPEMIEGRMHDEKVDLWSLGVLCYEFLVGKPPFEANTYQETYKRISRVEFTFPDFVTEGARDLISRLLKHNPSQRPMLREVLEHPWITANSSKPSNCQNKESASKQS
In short: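 Cells treated with compound in medium; lysed in RIPA and analysed by Simple Western (0.8 μg/μL lysate, 0.2 μg/μL for MYCN). Peak areas were normalized to vinculin, giving fold change versus DMSO (mean of 3 experiments); DC50 interpolated from four-parameter dose–response curves.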

[1] = Metabolic stability in mouse hepatocytes (MH); format: in vitro ADME, CD-1 mouse; conditions: CD-1
Experimental: as §1

[2] = NGP, 24 h treatment, read-out: AURKA DC50
[3] = SK-N-BE(2)-C, read-out: AURKA DC50 24h

Row | SMILES | half-life at 1 μM (Plasma stability assay) [h] | plasma t1/2 (Plasma stability assay) [h] | AURKA Degradation 24h @100nM (AURKA) | AURKA Degradation 24h @1000nM (AURKA) | pDC50 (AURKA) | Dmax (AURKA; NGP, 24 h treatment) [%] | DC50 (AURKA; [2]) [µM] | DC50 (AURKA; read-out: AURKA DC50) [µM] | hepatocyte CLint at 1 μM [1] [µL/min/1e6 cells] | AURKA degradation activity (in words) (AURKA; NGP, 24 h treatment) | AURKA DC50 (AURKA; NGP, 24 h treatment) | DC50 (AURKA; SJNB-8, read-out: AURKA DC50 24h) | time to robust AURKA depletion (AURKA) [h] | AURKA degradation potency upon cotreatment with tariquidar (in words) (AURKA; SK-N-BE(2)-C) | DC50 (AURKA; [3]) [µM] | DC50 (AURKA; HEK293T, read-out: AURKA DC50 24h) [µM] | DC50 (AURKA; RPE, read-out: AURKA DC50 24h) [µM] | DC50 (AURKA; SJNB-1, read-out: AURKA DC50 24h) [µM] | DC50 (AURKA; SK-N-AS, read-out: AURKA DC50 24h) [µM] | DC50 (AURKA; SK-N-SH, read-out: AURKA DC50 24h) [µM]
1 | O=C1CCN(c2ccc(N3CCN(CC4CN(C(=O)[C@]5(Cc6cccc(Nc7nccs7)n6)CC[C@@H](Oc6cccc(Cl)c6F)CC5)C4)CC3)nc2)C(=O)N1 [PROTAC 23] | > 2 | > 2 | 88 | 88 | 8,4 | 90 | – | 0.004 | < 4.1 | restored degradation activity | – | – | – | – | – | – | – | – | – | –
2 | O=C1CCC(N2C(=O)c3cccc(OCCOCCOCCOCCNC(=O)[C@]4(Cc5cccc(Nc6nccs6)n5)CC[C@@H](Oc5cccc(Cl)c5F)CC4)c3C2=O)C(=O)N1 (stereo partly shown) [SK2188, reference compound] | 1.12 | – | 86 | – | 8,41 | 89 | – | 0.0039 | – | – | – | – | – | – | – | – | – | – | – | –
3 | Cc1cc(Nc2ccc(F)c(CC3(C(=O)N4CCC(F)(CN5CCN(c6ccc(N7CCC(=O)NC7=O)cn6)CC5)CC4)CCN(Cc4cccc(Cl)c4F)CC3)n2)n[nH]1 [SK5527] | > 2 | > 2 | 88 | 93 | 8,68 | 89 | < 0.025 | 0.0021 | 4.4 | – | single-digit nanomolar range | – | ≤ 1 | significantly enhanced | 0.073 | 0.017 | 0.015 | 0.056 | 0.03 | 0.023

The remaining molecules from weak to strong by DC50 (AURKA; read-out: AURKA DC50), led by results:

Row | half-life at 1 μM (Plasma stability assay) [h] | plasma t1/2 (Plasma stability assay) [h] | AURKA Degradation 24h @100nM (AURKA) | AURKA Degradation 24h @1000nM (AURKA) | pDC50 (AURKA) | Dmax (AURKA; NGP, 24 h treatment) [%] | DC50 (AURKA; [2]) [µM] | DC50 (AURKA; read-out: AURKA DC50) [µM] | hepatocyte CLint at 1 μM [1] [µL/min/1e6 cells] | AURKA degradation activity (in words) (AURKA; NGP, 24 h treatment) | AURKA DC50 (AURKA; NGP, 24 h treatment) | DC50 (AURKA; SJNB-8, read-out: AURKA DC50 24h) | SMILES | time to robust AURKA depletion (AURKA) [h] | AURKA degradation potency upon cotreatment with tariquidar (in words) (AURKA; SK-N-BE(2)-C) | DC50 (AURKA; [3]) [µM] | DC50 (AURKA; HEK293T, read-out: AURKA DC50 24h) [µM] | DC50 (AURKA; RPE, read-out: AURKA DC50 24h) [µM] | DC50 (AURKA; SJNB-1, read-out: AURKA DC50 24h) [µM] | DC50 (AURKA; SK-N-AS, read-out: AURKA DC50 24h) [µM] | DC50 (AURKA; SK-N-SH, read-out: AURKA DC50 24h) [µM]
4 | > 2 | > 2 | 88 | 92 | 8,09 | 90 | < 0.025 | 0.0081 | < 4.1 | – | single-digit nanomolar range | < 0.025 µM and 0.023 µM | Cc1cc(Nc2ccc(F)c(CC3(C(=O)N4CCC(CN5CCN(c6ccc(N7CCC(=O)NC7=O)cn6)CC5)CC4)CCN(Cc4cccc(Cl)c4F)CC3)n2)n[nH]1 [SK4454] | ≤ 1 | significantly enhanced | 0.27 | – | – | – | – | –
5 | > 2 | > 2 | 78 | 84 | 8,11 | 87 | – | 0.0078 | < 4.1 | – | single-digit nanomolar range | – | Cc1cc(Nc2ccc(F)c(CC3(C(=O)N4CC(N5CCN(c6ccc(NC7CCC(=O)NC7=O)cc6F)CC5)C4)CCN(Cc4cccc(Cl)c4F)CC3)n2)n[nH]1 (stereo not shown) [PROTAC 29] | – | – | – | – | – | – | – | –
6 | > 2 | > 2 | 88 | 92 | 8,2 | 92 | 0.006 | 0.0064 | < 4.1 | – | – | – | O=C1CCC(Nc2ccc(N3CCN(C4CN(C(=O)[C@]5(Cc6cccc(Nc7nccs7)n6)CC[C@@H](Oc6cccc(Cl)c6F)CC5)C4)CC3)c(F)c2)C(=O)N1 (stereo partly shown) [PROTAC 18] | – | – | – | – | – | – | – | –
7 | > 2 | > 2 | 88 | 93 | 8,23 | 94 | – | 0.0058 | < 4.1 | restored degradation activity | – | – | O=C1CCN(c2ccc(N3CCN(CC4CCN(C(=O)[C@]5(Cc6cccc(Nc7nccs7)n6)CC[C@@H](Oc6cccc(Cl)c6F)CC5)CC4)CC3)nc2)C(=O)N1 [PROTAC 24] | – | – | – | – | – | – | – | –
